The numbers were not newly measured in PMC10329973 (Clinical pharmacology in drug development, 2023), which cites them from elsewhere.

One data set deals with depressed individuals. The settings on record: study in depressed individuals; cited from earlier work.
In the next data set the test system is blood pressure. The settings on record: cited from earlier work.

In the case of `C[C@@H]([C@@H](O)c1ccc(O)cc1)N1CCC(O)(c2ccccc2)CC1` [CP-101,606, traxoprodil], in the data set on depressed individuals, the dissociative effects entry is “ketamine-like dissociative effects were noted”.

With `Cc1ccc(COC(=O)N2CC[C@H](CNc3ncccn3)[C@H](F)C2)cc1` [MK-0657], in the data set with blood pressure, the off-target cardiovascular effects entry is “increased blood pressure”.
